Measured values taken from patent US11192877B2, “3-(5-hydroxy-1-oxoisoindolin-2-yl)piperidine-2,6-dione derivatives and uses thereof” (Novartis AG, priority 2018, dated 2021).

These compounds were tested against IKZF2 (Helios) (Homo sapiens, UniProt Q96SW2+Q9UKS7) (assay: Prolabel quantification of IKZF2 protein levels in 293GT cells). Conditions: 24 h, Pro-label assay, 293GT cells, 10 μM, read-out: IKZF2 % protein reduction at 10 μM, 24 h.
Sequence of IKZF2 (Helios) (Q9UKS7 whole entry): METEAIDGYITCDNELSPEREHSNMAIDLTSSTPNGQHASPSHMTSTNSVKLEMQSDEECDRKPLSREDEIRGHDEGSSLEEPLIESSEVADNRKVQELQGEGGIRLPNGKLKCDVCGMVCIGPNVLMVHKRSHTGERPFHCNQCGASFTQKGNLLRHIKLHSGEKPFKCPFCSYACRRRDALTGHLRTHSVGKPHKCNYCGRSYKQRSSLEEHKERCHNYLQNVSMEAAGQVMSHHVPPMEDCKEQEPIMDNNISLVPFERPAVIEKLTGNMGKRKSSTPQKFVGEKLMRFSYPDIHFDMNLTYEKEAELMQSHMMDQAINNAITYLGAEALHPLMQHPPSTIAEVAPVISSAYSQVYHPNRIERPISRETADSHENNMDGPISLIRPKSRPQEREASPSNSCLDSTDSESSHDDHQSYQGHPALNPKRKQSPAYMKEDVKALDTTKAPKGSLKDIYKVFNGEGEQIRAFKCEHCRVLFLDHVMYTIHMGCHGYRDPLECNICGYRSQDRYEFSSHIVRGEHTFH
Sequence of IKZF2 (Helios) (Q96SW2 whole entry): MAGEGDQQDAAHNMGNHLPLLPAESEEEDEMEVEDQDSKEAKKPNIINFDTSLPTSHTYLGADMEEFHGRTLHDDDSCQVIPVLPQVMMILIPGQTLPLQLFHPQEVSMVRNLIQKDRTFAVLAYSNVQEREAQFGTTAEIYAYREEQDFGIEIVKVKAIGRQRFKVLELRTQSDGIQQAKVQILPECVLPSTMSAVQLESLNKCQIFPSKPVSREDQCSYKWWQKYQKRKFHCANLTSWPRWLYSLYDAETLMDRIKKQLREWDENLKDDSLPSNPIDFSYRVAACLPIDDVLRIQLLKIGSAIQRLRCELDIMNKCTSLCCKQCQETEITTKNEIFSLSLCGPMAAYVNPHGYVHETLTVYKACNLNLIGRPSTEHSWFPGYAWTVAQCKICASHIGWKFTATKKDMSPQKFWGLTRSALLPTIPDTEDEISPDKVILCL
Sequence of IKZF2 (Helios) (Q16531 whole entry partner): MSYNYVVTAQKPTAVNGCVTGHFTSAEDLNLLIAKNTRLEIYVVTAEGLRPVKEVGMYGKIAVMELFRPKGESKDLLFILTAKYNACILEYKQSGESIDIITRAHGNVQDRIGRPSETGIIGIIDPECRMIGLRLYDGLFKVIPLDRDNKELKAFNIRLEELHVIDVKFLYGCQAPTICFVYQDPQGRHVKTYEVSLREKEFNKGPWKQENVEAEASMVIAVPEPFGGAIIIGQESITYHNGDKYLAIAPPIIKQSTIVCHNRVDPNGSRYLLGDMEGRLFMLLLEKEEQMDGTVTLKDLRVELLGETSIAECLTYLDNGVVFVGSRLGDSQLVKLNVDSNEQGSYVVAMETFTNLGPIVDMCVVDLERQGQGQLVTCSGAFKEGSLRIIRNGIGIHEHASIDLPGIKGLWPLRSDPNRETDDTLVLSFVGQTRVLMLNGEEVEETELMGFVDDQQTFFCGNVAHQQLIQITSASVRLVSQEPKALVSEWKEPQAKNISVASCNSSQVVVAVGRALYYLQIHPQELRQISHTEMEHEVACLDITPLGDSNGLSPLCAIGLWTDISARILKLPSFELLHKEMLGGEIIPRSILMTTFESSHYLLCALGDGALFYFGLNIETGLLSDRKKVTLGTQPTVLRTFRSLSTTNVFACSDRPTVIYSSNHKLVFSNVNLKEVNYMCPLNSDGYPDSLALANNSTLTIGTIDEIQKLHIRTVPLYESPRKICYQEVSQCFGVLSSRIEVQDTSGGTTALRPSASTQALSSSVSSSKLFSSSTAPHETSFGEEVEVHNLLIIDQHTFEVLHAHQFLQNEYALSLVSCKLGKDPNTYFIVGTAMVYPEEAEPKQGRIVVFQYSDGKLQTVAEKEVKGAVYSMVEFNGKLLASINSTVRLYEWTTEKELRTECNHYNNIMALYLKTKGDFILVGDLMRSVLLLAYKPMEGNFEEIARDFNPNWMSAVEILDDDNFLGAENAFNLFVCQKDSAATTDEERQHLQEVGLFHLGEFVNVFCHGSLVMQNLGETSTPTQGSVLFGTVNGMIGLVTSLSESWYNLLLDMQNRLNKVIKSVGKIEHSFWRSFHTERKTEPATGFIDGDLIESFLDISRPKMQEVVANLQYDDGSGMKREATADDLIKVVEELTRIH
Format: cell-based
With `CCN(CC)C1CC(C)(C)CC1Oc1ccc2c(c1)CN(C1CCC(=O)NC1=O)C2=O` (mixture of isomers) [I-172, Mixture of 3-(5-(((1S,2S)-2-(diethylamino)-4,4-dimethylcyclopentyl)oxy)-1-oxoisoindolin-2-yl)piperidine-2,6-dione and 3-(5-(((1R,2R)-2-(diethylamino)-4,4-dimethylcyclopentyl)oxy)-1-oxoisoindolin-2-yl)piperidine-2,6-dione] the IKZF2 % protein reduction at 10 µM was 58%. `CN1CC[C@H]2CC[C@H](Oc3ccc4c(c3)CN(C3CCC(=O)NC3=O)C4=O)[C@H]21` (relative stereo) [I-3, 3-(5-(((3aR*,6S*,6aS*)-1-methyloctahydrocyclopenta[b]pyrrol-6-yl)oxy)-1-oxoisoindolin-2-yl)piperidine-2,6-dione] showed an IKZF2 % protein reduction at 10 µM of 40%. Work on `O=C1CCC(N2Cc3cc(O[C@@H]4CCCC[C@@H]4O)ccc3C2=O)C(=O)N1` (relative stereo) [I-37, 3-(5-(((1R*, 2S*)-2-hydroxycyclohexyl)oxy)-1-oxoisoindolin-2-yl)piperidine-2,6-dione] yielded an IKZF2 % protein reduction at 10 µM of 0%. `O=C1CCC(N2Cc3cc(O[C@H]4CC[C@@H]4NCc4ccccc4)ccc3C2=O)C(=O)N1` (single isomer, unassigned) [I-44] was tested, and the IKZF2 % protein reduction at 10 µM was 42%. Compound `CC1(C#N)CC(CN[C@H]2CCCC[C@@H]2Oc2ccc3c(c2)CN(C2CCC(=O)NC2=O)C3=O)C1` (single isomer, unassigned) [I-94] has an IKZF2 % protein reduction at 10 µM of 84%. `COC1CC(CNC2CCCCC2Oc2ccc3c(c2)CN(C2CCC(=O)NC2=O)C3=O)C1` (single isomer, unassigned) [I-99] was tested, and the IKZF2 % protein reduction at 10 µM was 86%. `CO[C@@H]1CCC[C@H]1N[C@H]1CCCC[C@@H]1Oc1ccc2c(c1)CN(C1CCC(=O)NC1=O)C2=O` (single isomer, unassigned) [I-118] gave an IKZF2 % protein reduction at 10 µM of 67%. Work on `CO[C@H]1CCC[C@@H]1N[C@H]1CCCC[C@@H]1Oc1ccc2c(c1)CN(C1CCC(=O)NC1=O)C2=O` (single isomer, unassigned) [I-119] yielded an IKZF2 % protein reduction at 10 µM of 59%. `O=C1CCC(N2Cc3cc(OC4CCCCC4N4CCC(F)(F)C4)ccc3C2=O)C(=O)N1` (single isomer, unassigned) [I-134, 3-(5-((2-(3,3-difluoropyrrolidin-1-yl)cyclohexyl)oxy)-1-oxoisoindolin-2-yl)piperidine-2,6-dione] gave an IKZF2 % protein reduction at 10 µM of 56%. In the case of `CCN(CC1CC(C)(C#N)C1)C1CCCC1Oc1ccc2c(c1)CN(C1CCC(=O)NC1=O)C2=O` (single isomer, unassigned) [I-164], the IKZF2 % protein reduction at 10 µM was 71%. `CC1(C)CCCN([C@H]2CCC[C@@H]2Oc2ccc3c(c2)CN(C2CCC(=O)NC2=O)C3=O)C1` (single isomer, unassigned) [I-168] gave an IKZF2 % protein reduction at 10 µM of 83%. Compound `CC1(C)CCCN([C@@H]2CCC[C@H]2Oc2ccc3c(c2)CN(C2CCC(=O)NC2=O)C3=O)C1` (single isomer, unassigned) [I-169] has an IKZF2 % protein reduction at 10 µM of 2%. `O=C1CCC(N2Cc3cc(OC4CCCC4N4CCC5(CCOC5)CC4)ccc3C2=O)C(=O)N1` (single isomer, unassigned) [I-176, 3-(5-((2-(2-oxa-8-azaspiro[4.5]decan-8-yl)cyclopentyl)oxy)-1-oxoisoindolin-2-yl)piperidine-2,6-dione] gave an IKZF2 % protein reduction at 10 µM of 89%.

Same assay, conditions: Pro-label assay, 293GT cells, 10 μM
In the case of “3-(1-oxo-5-(((1S,2S)-2-phenoxycyclohexyl)oxy)isoindolin-2-yl)piperidine-2,6-dione and 3-(1-oxo-5-(((1R,2R)-2-phenoxycyclohexyl)oxy)isoindolin-2-yl)piperidine-2,6-dione [I-19]”, the “IKZF2 % protein reduction at 10 μM, 24 h” value was 10%. With `COC1CC(CNC2CCCCC2Oc2ccc3c(c2)CN(C2CCC(=O)NC2=O)C3=O)C1` (single isomer, unassigned) [I-100] the “IKZF2 % protein reduction at 10 μM, 24 h” value was 86%. With `CCN(CC1CC(C)(C#N)C1)C1CCCC1Oc1ccc2c(c1)CN(C1CCC(=O)NC1=O)C2=O` (single isomer, unassigned) [I-165] the “IKZF2 % protein reduction at 10 μM, 24 h” value was 72%.
